Results on 31 compounds are retold here after patent publication US11524968B2, “Heterocyclic compound as a protein kinase inhibitor” (HK inno.N Corporation, priority 2017, dated 2022).

Chain of JAK1 (P23458 whole entry): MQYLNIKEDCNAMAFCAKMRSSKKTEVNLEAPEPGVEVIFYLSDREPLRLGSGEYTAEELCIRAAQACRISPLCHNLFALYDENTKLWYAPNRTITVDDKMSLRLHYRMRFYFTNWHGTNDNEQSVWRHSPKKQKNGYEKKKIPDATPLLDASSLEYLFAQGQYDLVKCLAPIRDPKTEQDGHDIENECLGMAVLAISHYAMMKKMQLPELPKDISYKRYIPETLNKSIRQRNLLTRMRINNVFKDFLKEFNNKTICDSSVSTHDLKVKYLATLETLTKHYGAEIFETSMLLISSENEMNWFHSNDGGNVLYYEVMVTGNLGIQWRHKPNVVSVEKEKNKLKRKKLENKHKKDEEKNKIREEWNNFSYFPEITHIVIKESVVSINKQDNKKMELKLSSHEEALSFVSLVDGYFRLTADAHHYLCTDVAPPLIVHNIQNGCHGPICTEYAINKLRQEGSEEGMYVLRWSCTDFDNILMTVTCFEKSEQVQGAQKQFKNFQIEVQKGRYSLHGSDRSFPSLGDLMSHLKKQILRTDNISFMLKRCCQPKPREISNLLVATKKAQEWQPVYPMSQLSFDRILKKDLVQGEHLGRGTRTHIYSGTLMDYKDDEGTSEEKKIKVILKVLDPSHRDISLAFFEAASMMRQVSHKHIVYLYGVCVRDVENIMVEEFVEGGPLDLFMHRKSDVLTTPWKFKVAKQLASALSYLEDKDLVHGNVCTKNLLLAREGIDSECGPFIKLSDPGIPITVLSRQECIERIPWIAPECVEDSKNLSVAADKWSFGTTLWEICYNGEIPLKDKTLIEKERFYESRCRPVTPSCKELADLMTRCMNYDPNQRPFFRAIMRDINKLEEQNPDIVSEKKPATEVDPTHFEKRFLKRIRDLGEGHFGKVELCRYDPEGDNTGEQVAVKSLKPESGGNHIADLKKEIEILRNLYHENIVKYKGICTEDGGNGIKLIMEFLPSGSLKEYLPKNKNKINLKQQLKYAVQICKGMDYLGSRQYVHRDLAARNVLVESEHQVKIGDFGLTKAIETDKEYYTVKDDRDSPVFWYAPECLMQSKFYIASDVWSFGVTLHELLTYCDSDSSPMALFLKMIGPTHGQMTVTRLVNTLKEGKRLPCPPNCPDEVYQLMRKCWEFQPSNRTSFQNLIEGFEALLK

The test deals with JAK1 (Homo sapiens (Human), UniProt P23458). The test can be described thus: Analysis of JAK1 activity inhibition ability (ADP-Glo Kinase Assay). The class given is biochemical. Particulars: JAK1 enzyme, ADP-Glo luminescence, ATP 250 uM, IRS-itide substrate, 30° C. 40 minutes; read-out: IC50. In a few lines:
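ADP-Glo luminescence read-out of ADP production, with IC50 taken as the concentration halving JAK1 activity relative to control. Enzyme was incubated 40 min at 30 °C with compound, IRS-itide (40 ng/mL) and ATP (250 uM), concentrations as prepared in pH 7.5 Tris-HCl/MgCl2/BSA/DTT buffer.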
For `N#CCC1(CS(=O)(=O)Nc2ccc(-c3cc(NC(=O)C4CC4)nc4[nH]ccc34)cc2)CC1` [Example 89, N-(4-(4-(((1-(cyanomethyl)cyclopropyl)methyl)sulfonamido)phenyl)-1H-pyrrolo[2,3-b]pyridin-6-yl)cyclopropanecarboxamide], the IC50 – broadly, the concentration needed to halve the response being measured – was less than 20 nM.

Turning to `O=C(Nc1cc(-c2ccc(NS(=O)(=O)C3CCC3)c(F)c2)c2cc[nH]c2n1)C1CC1` [Example 78, N-(4-(4-(cyclobutanesulfonamido)-3-fluorophenyl)-1H-pyrrolo[2,3-b]pyridin-6-yl)cyclopropanecarboxamide], the IC50 was less than 20 nM.

In the case of `N#Cc1ccc(S(=O)(=O)Nc2ccc(-c3nc(NC(=O)C4CC4)nc4[nH]ccc34)cc2)cn1` [Example 197, N-(4-(4-((6-cyanopyridine)-3-sulfonamido)phenyl)-7H-pyrrolo[2,3-d]pyrimidin-2-yl)cyclopropanecarboxamide], the IC50 is greater than 200 nM.

In the case of `O=C(Nc1cc(C2=CCN(C(=O)n3ccnc3)CC2)c2cc[nH]c2n1)C1CC1` [Example 451, N-(4-(1-(1H-imidazole-1-carbonyl)-1,2,3,6-tetrahydropyridin-4-yl)-1H-pyrrolo[2,3-b]pyridin-6-yl)cyclopropanecarboxamide], the IC50 fell in the range of 20 to 200 nM.

In the case of `O=C(Nc1cc(C2=CCN(C(=O)c3cnsc3)CC2)c2cc[nH]c2n1)C1CC1` [Example 292, N-(4-(1-(isothiazole-4-carbonyl)-1,2,3,6-tetrahydropyridin-4-yl)-1H-pyrrolo[2,3-b]pyridin-6-yl)cyclopropanecarboxamide], the IC50 is less than 20 nM.

As for `N#CCCCS(=O)(=O)Nc1ccc(-c2cc(NC(=O)C3CC3)nc3[nH]ccc23)cc1F` [Example 77, N-(4-(4-((3-cyanopropyl)sulfonamido)-3-fluorophenyl)-1H-pyrrolo[2,3-b]pyridin-6-yl)cyclopropanecarboxamide], the IC50 is less than 20 nM.

As for `CCS(=O)(=O)Nc1ccc(-c2cc(NC(=O)C3CC3)nc3[nH]ccc23)c(C#N)c1` [Example 144, N-(4-(2-cyano-4-(ethylsulfonamido)phenyl)-1H-pyrrolo[2,3-b]pyridin-6-yl)cyclopropanecarboxamide], the IC50 fell in the range of 20 to 200 nM.

Turning to `O=C(Nc1cc(C2=CCN(CC(=O)N3CCS(=O)(=O)CC3)CC2)c2cc[nH]c2n1)C1CC1` [Example 578, N-(4-(1-(2-(1,1-dioxidothiomorpholino)-2-oxoethyl)-1,2,3,6-tetrahydropyridin-4-yl)-1H-pyrrolo[2,3-b]pyridin-6-yl)cyclopropanecarboxamide], the IC50 is 20 to 200 nM.

In the case of `O=C(Nc1cc(N2CC3CCC(C2)N3C(=O)NCC(F)(F)F)c2cc[nH]c2n1)C1CC1` [Example 691, 3-(6-(cyclopropanecarboxamido)-1H-pyrrolo[2,3-b]pyridin-4-yl)-N-(2,2,2-trifluoroethyl)-3,8-diazabicyclo[3.2.1]octane-8-carboxamide], the IC50 was less than 20 nM.

For the compound `CC1CN(C(=O)c2ccnc(C(F)(F)F)c2)CC=C1c1cc(NC(=O)C2CC2)nc2[nH]ccc12` (stereo not shown) [Example 384, N-(4-(3-methyl-1-(2-(trifluoromethyl)isonicotinoyl)-1,2,3,6-tetrahydropyridin-4-yl)-1H-pyrrolo[2,3-b]pyridin-6-yl)cyclopropanecarboxamide], the half-maximal inhibitory concentration (IC50) was 20 to 200 nM.

For `CC(C)(C)OC(=O)N1CC2CCC(C1)N2c1cc(NC(=O)C2CC2)nc2[nH]ccc12` [Example 694, tert-butyl 8-(6-(cyclopropanecarboxamido)-1H-pyrrolo[2,3-b]pyridin-4-yl)-3,8-diazabicyclo[3.2.1]octane-3-carboxylate], the half-maximal inhibitory concentration (IC50) is greater than 200 nM.

As to `C=CCS(=O)(=O)Nc1ccc(-c2cc(NC(=O)C3CC3)nc3[nH]ccc23)cc1F` [Example 71, N-(4-(4-(allylsulfonamido)-3-fluorophenyl)-1H-pyrrolo[2,3-b]pyridin-6-yl)cyclopropanecarboxamide], the IC50 is less than 20 nM.

As to `O=C(Nc1cc(-c2cnn(C3CNC3)c2)c2cc[nH]c2n1)C1CC1` [Example 600, N-(4-(1-(azetidin-3-yl)-1H-pyrazol-4-yl)-1H-pyrrolo[2,3-b]pyridin-6-yl)cyclopropanecarboxamide], the IC50 is 20 to 200 nM.

In the case of `Cc1ccc(S(=O)(=O)Nc2ccc(-c3cc(NC(=O)C4CC4)nc4[nH]ccc34)cc2)cc1` [Example 27, N-(4-(4-((4-methylphenyl)sulfonamido)phenyl)-1H-pyrrolo[2,3-b]pyridin-6-yl)cyclopropanecarboxamide], the IC50 is 20 to 200 nM.

Turning to `O=C(Nc1cc(-c2ccc(OS(=O)(=O)C3CCCCC3)cc2)c2cc[nH]c2n1)C1CC1` [Example 634, 4-(6-(cyclopropanecarboxamido)-1H-pyrrolo[2,3-b]pyridin-4-yl)phenyl cyclohexanesulfonate], the IC50 was greater than 200 nM.

On to `O=C(Nc1cc(-c2ccc(OCCN3CCOCC3)cc2)c2cc[nH]c2n1)C1CC1` [Example 642, N-(4-(4-(2-morpholinoethoxy)phenyl)-1H-pyrrolo[2,3-b]pyridin-6-yl)cyclopropanecarboxamide], for which the IC50 lay within 20 to 200 nM.

For the compound `O=C(Nc1cc(C2=CC3CCC(C2)N3C(=O)CC(F)(F)F)c2cc[nH]c2n1)C1CC1` (stereo not shown) [Example 261, N-(4-(8-(3,3,3-trifluoropropanoyl)-8-azabicyclo[3.2.1]oct-2-en-3-yl)-1H-pyrrolo[2,3-b]pyridin-6-yl)cyclopropanecarboxamide], the IC50 is 20 to 200 nM.

On to `O=C(Nc1cc(-c2ccc(CC(=O)N3CCCC3)cc2)c2cc[nH]c2n1)C1CC1` [Example 547, N-(4-(4-(2-oxo-2-(pyrrolidin-1-yl)ethyl)phenyl)-1H-pyrrolo[2,3-b]pyridin-6-yl)cyclopropanecarboxamide], for which the IC50 fell in the range of 20 to 200 nM.

Take `CCC(=O)NC1CC=C(c2cc(NC(=O)C3CC3)nc3[nH]ccc23)CC1` (stereo not shown) [Example 242, N-(4-(4-propionamidocyclohex-1-en-1-yl)-1H-pyrrolo[2,3-b]pyridin-6-yl)cyclopropanecarboxamide]: the IC50 was greater than 200 nM.

For `O=C(Nc1cc(-c2ccc(NS(=O)(=O)c3ccc(Cl)c(C(F)(F)F)c3)cc2)c2cc[nH]c2n1)C1CC1` [Example 33, N-(4-(4-((4-chloro-3-(trifluoromethyl)phenyl)sulfonamido)phenyl)-1H-pyrrolo[2,3-b]pyridin-6-yl)cyclopropanecarboxamide], the IC50 lay in the range of 20 to 200 nM.

For the compound `CCS(=O)(=O)Nc1ccc(-c2cc(NCC3CC3)nc3[nH]ccc23)cc1F` [Example 713, N-(4-(6-((cyclopropylmethyl)amino)-1H-pyrrolo[2,3-b]pyridin-4-yl)-2-fluorophenyl)ethanesulfonamide], the IC50 was greater than 200 nM.

On to `N#CCC1(N2CC=C(c3cc(NC(=O)C4CC4)nc4[nH]ccc34)CC2)CN(C2CCN(C(=O)c3nc(C(F)(F)F)cs3)CC2)C1` [Example 621, N-(4-(1-(3-(cyanomethyl)-1-(1-(4-(trifluoromethyl)thiazole-2-carbonyl)piperidin-4-yl)azetidin-3-yl)-1,2,3,6-tetrahydropyridin-4-yl)-1H-pyrrolo[2,3-b]pyridin-6-yl)cyclopropanecarboxamide], for which the IC50 was 20 to 200 nM.

Regarding `CCC(CC)S(=O)(=O)Nc1ccc(-c2cc(NC(=O)C3CC3)nc3[nH]ccc23)cc1` [Example 42, N-(4-(4-((1-ethylpropyl)sulfonamido)phenyl)-1H-pyrrolo[2,3-b]pyridin-6-yl)cyclopropanecarboxamide], the IC50 was less than 20 nM.

`O=C(Nc1cc(C2=CCC(NS(=O)(=O)CC3CC3)CC2)c2cc[nH]c2n1)C1CC1` (stereo not shown) [Example 161, N-(4-(4-((cyclopropylmethyl)sulfonamido)cyclohex-1-en-1-yl)-1H-pyrrolo[2,3-b]pyridin-6-yl)cyclopropanecarboxamide]: the IC50 was less than 20 nM.

For `CCS(=O)(=O)Nc1ccc(-c2cc(NC(=O)C3CC3)nc3[nH]c(C)cc23)cc1` [Example 74, N-(4-(4-(ethylsulfonamido)phenyl)-2-methyl-1H-pyrrolo[2,3-b]pyridin-6-yl)cyclopropanecarboxamide], the IC50 is greater than 200 nM.

In the case of `CC1CC1C(=O)N1CC=C(c2cc(NC(=O)C3CC3)nc3[nH]ccc23)CC1` (stereo not shown) [Example 273, N-(4-(1-(2-methylcyclopropane-1-carbonyl)-1,2,3,6-tetrahydropyridin-4-yl)-1H-pyrrolo[2,3-b]pyridin-6-yl)cyclopropanecarboxamide], the IC50 lay within 20 to 200 nM.

Regarding `CSc1ccc(S(=O)(=O)Nc2ccc(-c3cc(NC(=O)C4CC4)nc4[nH]ccc34)cc2)cc1` [Example 28, N-(4-(4-((4-(methylthio)phenyl)sulfonamido)phenyl)-1H-pyrrolo[2,3-b]pyridin-6-yl)cyclopropanecarboxamide], the IC50 was 20 to 200 nM.

Turning to `O=C(Nc1cc(C2CCN(C(=O)NCC(F)(F)F)CC2)c2cc[nH]c2n1)C1CC1` [Example 654, 4-(6-(cyclopropanecarboxamido)-1H-pyrrolo[2,3-b]pyridin-4-yl)-N-(2,2,2-trifluoroethyl)piperidine-1-carboxamide], the 50% inhibitory concentration (IC50) was greater than 200 nM.

Regarding `O=C(NCC(F)(F)F)C1CC=C(c2cc(NC(=O)C3CC3)nc3[nH]ccc23)CC1` (stereo not shown) [Example 531, 4-(6-(cyclopropanecarboxamido)-1H-pyrrolo[2,3-b]pyridin-4-yl)-N-(2,2,2-trifluoroethyl)cyclohex-3-ene-1-carboxamide], the IC50 is 20 to 200 nM.

In the case of `O=C(Nc1cc(-c2ccc(NC3CCN(C(=O)c4cc(F)cc(F)c4)CC3)c(F)c2)c2cc[nH]c2n1)C1CC1` [Example 499, N-(4-(4-((1-(3,5-difluorobenzoyl)piperidin-4-yl)amino)-3-fluorophenyl)-1H-pyrrolo[2,3-b]pyridin-6-yl)cyclopropanecarboxamide], the IC50 was greater than 200 nM.

Turning to `O=C(Nc1cc(-c2ccc(CC(=O)N3CCOCC3)cc2)c2cc[nH]c2n1)C1CC1` [Example 536, N-(4-(4-(2-morpholino-2-oxoethyl)phenyl)-1H-pyrrolo[2,3-b]pyridin-6-yl)cyclopropanecarboxamide], the IC50 lay in the range of 20 to 200 nM.
